Assay: Study HDP-CDV-201: safety and tolerability (adverse events, laboratory abnormalities, discontinuations)
Format: in vivo, human (adult allogeneic HSCT recipients)
Method: Clinical Studies of HDP-CDV were performed and described in detail in the following Examples. For example, HDP-CDV-201 is a placebo-controlled, dose-escalating trial in HSCT CMV (R+) recipients, evaluating the ability of HDP-CDV to prevent or control CMV infection was carried out. Five cohorts were established in which participants or subjects received either placebo or the HDP-CDV orally, in doses ranging from 40 mg weekly (QW) to 200 mg twice weekly (BIW). Subjects who were post-HSCT were enrolled at the time of engraftment and randomized to HDP-CDV or placebo (3 to 1 ratio) and received blinded therapy until approximately 100 day post-transplantation. HDP-CDV doses were 40 mg QW, 100 mg QW, 200 mg QW, 200 mg BIW and 100 mg BIW. Escalation to the next dose was decided by the data monitoring committee after review of the safety data from the previous Cohort. Subjects who developed CMV disease or CMV infection requiring pre-emptive therapy with local standard of care were discontinued from blinded therapy and followed for 4 weeks. Subjects who completed treatment with blinded therapy were followed for 8 weeks post-therapy.
Data from Study HDP-CDV-201 also provided characterization of the safety and tolerability profile of HDP-CDV when administered for the prevention or control of CMV infection in high risk (R^+) post-HSCT adult subjects.
The Safety population (SAFETY) included all randomized subjects who took at least one dose of study treatment. This population was used to summarize safety outcomes based on the treatment actually received, in cases where a subject was treated contrary to the randomization schedule.
The safety and tolerability profile of HDP-CDV, including subject demographics and Baseline characteristics; the AE profile; and laboratory abnormalities of interest were analyzed in the cohorts followed in this investigation.
Subjects completing the treatment period received a full course of study medication; those completing the entire study attended visits through 8 weeks of follow up. Subjects who discontinued treatment may have done so for protocol specified reasons (e.g. development of clinically significant CMV infection requiring preemptive treatment with excluded anti-CMV medications) or for other reasons (e.g., withdrawal, adverse events, loss to follow-up). The disposition of subjects in Study HDP-CDV-201 during the double-blind, placebo-controlled treatment period (through Week 11) is listed by dosing Cohort in TABLE 23.
Adverse events were examined by severity to ensure that all safety signals were identified in this study population. Because of the frequency of events in HSCT recipients, particular attention was given to evaluation of Grade 3 […], 4 (severe), and 5 (fatal) adverse events.
Only those preferred terms for which at least one Grade 3 or higher event was experienced in any treatment group are listed. Cytomegalovirus-related AEs are excluded from this analysis.
HDP-CDV is a lipid conjugate of CDV. Because CDV is known to have adverse effects on renal function and bone marrow, decreased GFR and persistent neutropenia were identified as AEs of special interest. Key renal and hematological (TABLE 30) laboratory parameters were measured and listed below by Study HDP-CDV-201 treatment groups. TABLE 30 includes abnormal levels of serum creatinine, neutrophils, platelets, WBCs, and hemoglobin and includes data at Screening and during the treatment period.
A common metric for unit based dosing of medications is by weight (mg/kg). When the distribution of weights was examined for all subjects participating in the study, the median was 78 kg and the lower 25th percentile weight was approximately 65 kg, which translates to a cut-off of ˜3 mg/kg for a 200 mg total weekly dose. Based upon this approach, a cut-off of 3 mg/kg was used to assess the frequency of diarrhea and associated GI AEs reported for the subjects in Cohorts 3 or 4a (TABLE 40).

[1] = Cohort 3, 200 mg QW, through Week 11

Structure (SMILES): CCCCCCCCCCCCCCCCOCCCOP(=O)(O)COC(CO)Cn1ccc(N)nc1=O (stereo not drawn) [HDP-CDV]
- TEAE Vomiting Overall Frequency, subjects (Cohort 3, 200 mg QW): 6 (15.4%)
- Total Bilirubin (Screening) >1-[…] ULN, subjects (Cohort 3, 200 mg QW): 0
- Total Bilirubin (Screening) >1.5-3 × ULN, subjects (Cohort 3, 200 mg QW): 0
- Total Bilirubin (Screening) >3-10 × ULN, subjects (Cohort 3, 200 mg QW): 0
- Total Bilirubin (Screening) >10 × ULN, subjects (Cohort 3, 200 mg QW): 0
- Total Bilirubin (any time during therapy) >1-[…] ULN, subjects (Cohort 3, 200 mg QW): 1 (2.6%)
- Total Bilirubin (any time during therapy) >1.5-3 × ULN, subjects (Cohort 3, 200 mg QW): 3 (7.9%)
- Total Bilirubin (any time during therapy) >3-10 × ULN, subjects (Cohort 3, 200 mg QW): 0
- Total Bilirubin (any time during therapy) >10 × ULN, subjects (Cohort 3, 200 mg QW): 0
- Abdominal pain leading to study drug withdrawal (Cohort 3, 200 mg QW, N = 39): 0%
- All AEs leading to withdrawal (Cohort 3, 200 mg QW, N = 39): 15 (38.5%)
- Diarrhoea leading to study drug withdrawal (Cohort 3, 200 mg QW, N = 39): 1 (2.6%)
- Dyspepsia leading to study drug withdrawal (Cohort 3, 200 mg QW, N = 39): 2 (5.1%)
- Nausea leading to study drug withdrawal (Cohort 3, 200 mg QW, N = 39): 0%
- TEAE ALT increased (Cohort 3, 200 mg QW, N = 39): 2 (5.1%) n (%)
- TEAE AST increased (Cohort 3, 200 mg QW, N = 39): 1 (2.6%) n (%)
- TEAE Abdominal pain (Cohort 3, 200 mg QW, N = 39): 5 (12.8%) n (%)
- TEAE Abdominal pain, Upper (Cohort 3, 200 mg QW, N = 39): 1 (2.6%) n (%)
- TEAE Acute GVHD (Cohort 3, 200 mg QW, N = 39): 13 (33.3%) n (%)
- TEAE Acute Myeloid Leukemia recurrent (Cohort 3, 200 mg QW, N = 39): 0 n (%)
- TEAE Acute Renal Failure (Cohort 3, 200 mg QW, N = 39): 0 n (%)
- TEAE Anxiety (Cohort 3, 200 mg QW, N = 39): 3 (7.7%) n (%)
- TEAE Arthralgias (Cohort 3, 200 mg QW, N = 39): 1 (2.6%) n (%)
- TEAE Back Pain (Cohort 3, 200 mg QW, N = 39): 2 (5.1%) n (%)
- TEAE Blood lactate dehydrogenase increased (Cohort 3, 200 mg QW, N = 39): 0 n (%)
- TEAE Creatinine increased (Cohort 3, 200 mg QW, N = 39): 3 (7.7%) n (%)
- TEAE Cytomegalovirus viremia (Cohort 3, 200 mg QW, N = 39): 7 (17.9%) n (%)
- TEAE Decreased appetite (Cohort 3, 200 mg QW, N = 39): 3 (7.7%) n (%)
- TEAE Diarrhoea (Cohort 3, 200 mg QW, N = 39): 13 (33.3%) n (%)
- TEAE Dysgeusia (Cohort 3, 200 mg QW, N = 39): 2 (5.1%) n (%)
- TEAE Fatigue (Cohort 3, 200 mg QW, N = 39): 5 (12.8%) n (%)
- TEAE GI Reflux Disease (Cohort 3, 200 mg QW, N = 39): 2 (5.1%) n (%)
- TEAE Gamma-glutamyltransferase increased (Cohort 3, 200 mg QW, N = 39): 0 n (%)
- TEAE Generalized oedema (Cohort 3, 200 mg QW, N = 39): 0 n (%)
- TEAE Hyperbilirubinaemia (Cohort 3, 200 mg QW, N = 39): 3 (7.7%) n (%)
- TEAE Hyperglycaemia (Cohort 3, 200 mg QW, N = 39): 1 (2.6%) n (%)
- TEAE Hyperkalemia (Cohort 3, 200 mg QW, N = 39): 1 (2.6%) n (%)
- TEAE Hypocalcaemia (Cohort 3, 200 mg QW, N = 39): 0 n (%)
- TEAE Hypokalaemia (Cohort 3, 200 mg QW, N = 39): 5 (12.8%) n (%)
- TEAE Hyponatraemia (Cohort 3, 200 mg QW, N = 39): 7 (17.9%) n (%)
- TEAE Increased leukocytosis (Cohort 3, 200 mg QW, N = 39): 2 (5.1%) n (%)
- TEAE Insomnia (Cohort 3, 200 mg QW, N = 39): 5 (12.8%) n (%)
- TEAE Liver function test abnormal (Cohort 3, 200 mg QW, N = 39): 2 (5.1%) n (%)
- TEAE Malnutrition (Cohort 3, 200 mg QW, N = 39): 1 (2.6%) n (%)
- TEAE Nausea (Cohort 3, 200 mg QW, N = 39): 11 (28.2%) n (%)
- TEAE Neutropenia (Cohort 3, 200 mg QW, N = 39): 4 (10.3%) n (%)
- TEAE Oedema peripheral (Cohort 3, 200 mg QW, N = 39): 3 (7.7%) n (%)
- TEAE Oral Candidiasis (Cohort 3, 200 mg QW, N = 39): 2 (5.1%) n (%)
- TEAE Pneumonia (Cohort 3, 200 mg QW, N = 39): 0 n (%)
- TEAE Pyrexia (Cohort 3, 200 mg QW, N = 39): 7 (17.9%) n (%)
- TEAE Recurrent flatulence (Cohort 3, 200 mg QW, N = 39): 1 (2.6%) n (%)
- TEAE Renal Failure (Cohort 3, 200 mg QW, N = 39): 0 n (%)
- TEAE Staphylococcal Bacteremia (Cohort 3, 200 mg QW, N = 39): 1 (2.6%) n (%)
- TEAE Thrombocytopenia (Cohort 3, 200 mg QW, N = 39): 0 n (%)
- TEAE Tremor (Cohort 3, 200 mg QW, N = 39): 2 (5.1%) n (%)
- TEAE Vomiting (Cohort 3, 200 mg QW, N = 39): 6 (15.4%) n (%)
- Vomiting leading to study drug withdrawal (Cohort 3, 200 mg QW, N = 39): 0%
- All AEs, Grade 5 (deaths) (Cohort 3, 200 mg QW, N = 39, entire study duration): 3 (7.7%)
- Subjects completed treatment [1]: 18 (46.2%) n (%)
- Subjects who permanently discontinued treatment [1]: 21 (53.8%) n (%)
- TEAE Abdominal pain Grade 2, subjects (Cohort 3, 200 QW >3 mg/kg): 0
- TEAE Abdominal pain Grade 3, subjects (Cohort 3, 200 QW >3 mg/kg): 1 (7.1%)
- TEAE Abdominal pain Grade 4, subjects (Cohort 3, 200 QW >3 mg/kg): 0
- TEAE Abdominal pain Grade 5, subjects (Cohort 3, 200 QW >3 mg/kg): 0
- TEAE Abdominal pain Overall Frequency, subjects (Cohort 3, 200 QW >3 mg/kg): 2 (14.3%)
- TEAE Diarrhea Grade 2, subjects (Cohort 3, 200 QW >3 mg/kg): 4 (28.6%)
- TEAE Diarrhea Grade 3, subjects (Cohort 3, 200 QW >3 mg/kg): 1 (7.1%)
- TEAE Diarrhea Grade 4, subjects (Cohort 3, 200 QW >3 mg/kg): 0
- TEAE Diarrhea Grade 5, subjects (Cohort 3, 200 QW >3 mg/kg): 0
- TEAE Diarrhea Overall Frequency, subjects (Cohort 3, 200 QW >3 mg/kg): 8 (57.1%)
- TEAE Hypokalaemia Grade 2, subjects (Cohort 3, 200 QW >3 mg/kg): 1 (7.1%)
- TEAE Hypokalaemia Grade 3, subjects (Cohort 3, 200 QW >3 mg/kg): 0
- TEAE Hypokalaemia Grade 4, subjects (Cohort 3, 200 QW >3 mg/kg): 0
- TEAE Hypokalaemia Grade 5, subjects (Cohort 3, 200 QW >3 mg/kg): 0
- TEAE Hypokalaemia, subjects (Cohort 3, 200 QW >3 mg/kg): 4 (28.6%)
- TEAE Nausea Grade 2, subjects (Cohort 3, 200 QW >3 mg/kg): 1 (7.1%)
- TEAE Nausea Grade 3, subjects (Cohort 3, 200 QW >3 mg/kg): 0
- TEAE Nausea Grade 4, subjects (Cohort 3, 200 QW >3 mg/kg): 0
- TEAE Nausea Grade 5, subjects (Cohort 3, 200 QW >3 mg/kg): 0
- TEAE Nausea Overall Frequency, subjects (Cohort 3, 200 QW >3 mg/kg): 3 (21.4%)
- TEAE Vomiting Grade 2, subjects (Cohort 3, 200 QW >3 mg/kg): 0
- TEAE Vomiting Grade 3, subjects (Cohort 3, 200 QW >3 mg/kg): 0
- TEAE Vomiting Grade 4, subjects (Cohort 3, 200 QW >3 mg/kg): 0
- TEAE Vomiting Grade 5, subjects (Cohort 3, 200 QW >3 mg/kg): 0
- TEAE Vomiting Overall Frequency, subjects (Cohort 3, 200 QW >3 mg/kg): 2 (14.3%)
- TEAE Abdominal pain Grade 2, subjects (Cohort 3, 200 QW ≦3 mg/kg): 1 (4.0%)
- TEAE Abdominal pain Grade 3, subjects (Cohort 3, 200 QW ≦3 mg/kg): 0
- TEAE Abdominal pain Grade 4, subjects (Cohort 3, 200 QW ≦3 mg/kg): 0
- TEAE Abdominal pain Grade 5, subjects (Cohort 3, 200 QW ≦3 mg/kg): 0
- TEAE Abdominal pain Overall Frequency, subjects (Cohort 3, 200 QW ≦3 mg/kg): 3 (12%)
- TEAE Diarrhea Grade 2, subjects (Cohort 3, 200 QW ≦3 mg/kg): 1 (4.0%)
- TEAE Diarrhea Grade 3, subjects (Cohort 3, 200 QW ≦3 mg/kg): 1 (4.0%)
- TEAE Diarrhea Grade 4, subjects (Cohort 3, 200 QW ≦3 mg/kg): 0
- TEAE Diarrhea Grade 5, subjects (Cohort 3, 200 QW ≦3 mg/kg): 0
- TEAE Diarrhea Overall Frequency, subjects (Cohort 3, 200 QW ≦3 mg/kg): 5 (20%)
- TEAE Hypokalaemia Grade 2, subjects (Cohort 3, 200 QW ≦3 mg/kg): 1 (4.0%)
- TEAE Hypokalaemia Grade 3, subjects (Cohort 3, 200 QW ≦3 mg/kg): 0
- TEAE Hypokalaemia Grade 4, subjects (Cohort 3, 200 QW ≦3 mg/kg): 0
- TEAE Hypokalaemia Grade 5, subjects (Cohort 3, 200 QW ≦3 mg/kg): 0
- TEAE Hypokalaemia, subjects (Cohort 3, 200 QW ≦3 mg/kg): 1 (4.0%)
- TEAE Nausea Grade 2, subjects (Cohort 3, 200 QW ≦3 mg/kg): 3 (12%)
- TEAE Nausea Grade 3, subjects (Cohort 3, 200 QW ≦3 mg/kg): 1 (4.0%)
- TEAE Nausea Grade 4, subjects (Cohort 3, 200 QW ≦3 mg/kg): 0
- TEAE Nausea Grade 5, subjects (Cohort 3, 200 QW ≦3 mg/kg): 0
- TEAE Nausea Overall Frequency, subjects (Cohort 3, 200 QW ≦3 mg/kg): 8 (32%)
- TEAE Vomiting Grade 2, subjects (Cohort 3, 200 QW ≦3 mg/kg): 1 (4.0%)
- TEAE Vomiting Grade 3, subjects (Cohort 3, 200 QW ≦3 mg/kg): 1 (4.0%)
- TEAE Vomiting Grade 4, subjects (Cohort 3, 200 QW ≦3 mg/kg): 0
- TEAE Vomiting Grade 5, subjects (Cohort 3, 200 QW ≦3 mg/kg): 0
- TEAE Vomiting Overall Frequency, subjects (Cohort 3, 200 QW ≦3 mg/kg): 4 (16%)
- Abnormal ALT >3-5x ULN, Any Time Between Week 2 and Week 10, subjects (Cohort 3, >3.0 mg/kg/wk): 1 (7.1%)
